Experimental data published in ChEMBL document CHEMBL5226317, “Camptothecin's journey from discovery to WHO Essential Medicine: Fifty years of promise” (Eur J Med Chem, 2021).
Structures can show the parent of a compound that is named as a salt. One block for each molecule: values may come before it.

Legend:
Assay type in all cases: functional, cell-based
NCI-H460 = test: Antiproliferative activity against human NCI-H460 cells incubated for 72 hrs; settings: NCI-H460, 72 h
HeLa = test: Antiproliferative activity against human HeLa cells incubated for 72 hrs
MSTO-211H = test: Antiproliferative activity against human MSTO-211H cells incubated for 72 hrs
A-431 = test: Antiproliferative activity against human A-431 cells incubated for 72 hrs; settings: A-431, 72 h
A549 [1] = test: Cytotoxicity against human A549 cells
HT-29 [2] = test: Cytotoxicity against human HT-29 cells
[3] = Antiproliferative activity against human KB-VIN cells; settings: KBVIN
A549 [4] = test: Antiproliferative activity against human A549 cells measured after 72 hrs by colorimetric assay; settings: A549, 72 h
[5] = Antiproliferative activity against human KB-VIN cells measured after 72 hrs by colorimetric assay; settings: KBVIN
KB [6] = test: Antiproliferative activity against human KB cells measured after 72 hrs by colorimetric assay
MDA-MB-231 = test: Antiproliferative activity against human MDA-MB-231 cells
KB [7] = test: Antiproliferative activity against human KB cells
[8] = Antiproliferative activity against human KB-VIN cells assessed as reduction in cell viability; settings: KBVIN
MCF7 = test: Antiproliferative activity against human MCF7 cells
A549 [9] = test: Antiproliferative activity against human A549 cells
A549 [10] = test: Cytotoxicity against human A549 cells incubated for 48 hrs by SpectraMax M5 microplate reader analysis; settings: A549, 48 h
H322 = test: Anticancer activity against human H322 cells incubated for 48 hrs by MTT assay; settings: NCI-H322, 48 h
HL-60 = test: Anticancer activity against human HL-60 cells incubated for 48 hrs by MTT assay; settings: HL-60, 48 h
HepG2 [11] = test: Anticancer activity against human HepG2 cells incubated for 48 hrs by MTT assay; settings: HepG2, 48 h
HT-29 [12] = test: Anticancer activity against human HT-29 cells incubated for 48 hrs by MTT assay; settings: HT-29, 48 h
Jurkat = test: Anticancer activity against human Jurkat cells incubated for 48 hrs by MTT assay
HCT-116 = test: Anticancer activity against human HCT-116 cells incubated for 48 hrs by MTT assay; settings: HCT-116, 48 h
DU-145 = test: Anticancer activity against human DU-145 cells incubated for 48 hrs by MTT assay; settings: DU-145, 48 h
A549 [13] = test: Anticancer activity against human A549 cells incubated for 48 hrs by MTT assay; settings: A549, 48 h
SGC-7901 = test: Antiproliferative activity against human SGC-7901 cells incubated for 48 hrs by CCK-8 assay; settings: SGC-7901, 48 h
HCT-8 [14] = test: Cytotoxicity against human HCT-8 cells
KB [15] = test: Antiproliferative activity against human KB cells incubated for 48 hrs by CCK-8 assay
HepG2 [16] = test: Antiproliferative activity against human HepG2 cells incubated for 48 hrs by CCK-8 assay; settings: HepG2, 48 h
HCT-8 [17] = test: Antiproliferative activity against human HCT-8 cells incubated for 48 hrs by CCK-8 assay; settings: HCT-8, 48 h
NCI-H1299 = test: Cytotoxicity against human NCI-H1299 cells incubated for 48 hrs by MTT assay; settings: NCI-H1299, 48 h
[18] = Cytotoxicity against human NCI-H196 cells incubated for 48 hrs by MTT assay; settings: NCI-H196, 48 h
SBC-5 = test: Cytotoxicity against human SBC-5 cells incubated for 48 hrs by MTT assay; settings: SBC-5, 48 h
SBC-3 = test: Cytotoxicity against human SBC-3 cells incubated for 48 hrs by MTT assay; settings: SBC-3, 48 h
A549 [19] = test: Cytotoxicity against human A549 cells incubated for 48 hrs by MTT assay; settings: A549, 48 h
NCI-H520 = test: Cytotoxicity against human NCI-H520 cells incubated for 48 hrs by MTT assay; settings: NCI-H520, 48 h
NSCLC = test: Cytotoxicity against human NSCLC cells
SW 1116 = test: Anticancer activity against human SW 1116 cells incubated for 72 hrs by MTT assay; settings: SW 1116, 72 h
K562 = test: Anticancer activity against human K562 cells incubated for 72 hrs by MTT assay; settings: K562, 72 h
U-251 = test: Anticancer activity against human U-251 cells incubated for 72 hrs by MTT assay; settings: U-251, 72 h
SK-OV-3 = test: Anticancer activity against human SK-OV-3 cells incubated for 72 hrs by MTT assay; settings: SK-OV-3, 72 h
[20] = Anticancer activity against human SPCA1 cells incubated for 72 hrs by MTT assay; settings: SPCA1, 72 h

Structure (SMILES): CC[C@@]1(O)C(=O)OCc2c1cc1n(c2=O)Cc2c-1nc1ccccc1c2CS
IC50 (NCI-H460): 27 nM
IC50 (HeLa): 8 nM
IC50 (MSTO-211H; Homo sapiens, MSTO-211H, 72 h): 1.85 nM
IC50 (MSTO-211H; msto-211h): 1.8 nM
IC50 (A-431): 110 nM

Structure (SMILES): CC[C@@](O)(C(=O)NCCCN1CCOCC1)c1cc2n(c(=O)c1CO)Cc1c-2nc2ccccc2c1-c1ccccc1
IC50 (A549 [1]): 10 nM
IC50 (HT-29 [2]): 10 nM

Structure (SMILES): CC[C@@](O)(C(=O)NCCN1CCOCC1)c1cc2n(c(=O)c1CO)Cc1c-2nc2ccccc2c1-c1ccccc1
IC50 (A549 [1]): 100 nM
IC50 (HT-29 [2]): 100 nM

Structure (SMILES): CC[C@@]1(O)C(=O)OCc2c1cc1n(c2=O)Cc2cc3c(CN(C)C)c(O)ccc3nc2-1 [TOPOTECAN HYDROCHLORIDE]
IC50 [3]: 511 nM

IC50 (A549 [4]): 31.4 nM
IC50 (KB [6]): 142 nM
Structure (SMILES): CC[C@]1(OC(=O)CN/C(Cc2ccc(OC)cc2)=N\S(=O)(=O)c2ccc(C)cc2)C(=O)OCc2c1cc1n(c2=O)Cc2cc3ccccc3nc2-1
IC50 [5]: 26 nM

Structure (SMILES): CC[C@@]1(O)C(=O)OCc2c1cc1n(c2=O)Cc2c-1nc1ccccc1c2CN1CCN(C(=S)Nc2cccc3ccccc23)CC1
IC50 [3]: 275 nM
IC50 (MDA-MB-231): 588 nM
IC50 (KB [7]): 89 nM
IC50 [8]: 275 nM
IC50 (MCF7): 789 nM
IC50 (A549 [9]): 59 nM

Structure (SMILES): CCc1c2c(nc3ccc(OC(=O)N4CCC(N5CCCCC5)CC4)cc13)-c1cc3c(c(=O)n1C2)COC(=O)[C@]3(O)CC [IRINOTECAN]
IC50 (A549 [10]): 9140 nM

Structure (SMILES): CCc1c2c(nc3ccc(OC)cc13)-c1cc([C@@](O)(CC)C(=O)NCCCN3CCOCC3)c(CO)c(=O)n1C2
IC50 (A549 [1]): 20 nM
IC50 (HT-29 [2]): 20 nM

Structure (SMILES): CC[C@@]1(O)C(=O)OCc2c1cc1n(c2=O)Cc2cc3cc(OCC(=O)OC(C)(C)C)ccc3nc2-1
IC50 (H322): 460 nM
IC50 (HL-60): 40 nM
IC50 (HepG2 [11]): 160 nM
IC50 (HT-29 [12]): 70 nM
IC50 (Jurkat): 40 nM
IC50 (HCT-116): 70 nM
IC50 (DU-145): 60 nM
IC50 (A549 [13]): 60 nM

Structure (SMILES): CC[C@@]1(O)C(=O)OCc2c1cc1n(c2=O)Cc2cc3c(/C=C(\C)C(=O)OC)c(O)ccc3nc2-1
IC50 (SGC-7901): 262 nM
IC50 (HCT-8 [14]): 30 nM
IC50 (KB [15]): 730 nM
IC50 (HepG2 [16]): 176 nM
IC50 (HCT-8 [17]): 30 nM

Structure (SMILES): CCc1c2c(nc3ccccc13)-c1cc3c(c(=O)n1C2)COC(=O)[C@]3(CC)OC(=O)CN/C(Cc1ccc(OC)cc1)=N\S(=O)(=O)c1ccc(C)cc1
IC50 (A549 [4]): 31.4 nM
IC50 [5]: 26 nM
IC50 (KB [6]): 142 nM

Structure (SMILES): CCc1c2c(nc3ccc(OCc4cn(C(COC(CO)CO)COC(CO)CO)nn4)cc13)-c1cc3c(c(=O)n1C2)COC(=O)[C@@]3(O)CC
IC50 (NCI-H1299): 1 mM
IC50 [18]: 510 µM
IC50 (SBC-5): 4.8 µM
IC50 (SBC-3): 1700 nM
IC50 (A549 [19]): 23 µM
IC50 (NCI-H520): 1500 nM

Structure (SMILES): CC[C@@]1(O)C(=O)OCc2c1cc1n(c2=O)Cc2cc3cc4c(cc3nc2-1)OCO4
IC50 (A549 [10]): 83 nM
EC50 (NSCLC): 1 nM

Structure (SMILES): CCc1c2c(nc3ccc(OC(=O)NC(CC(C)C)C(=O)O)cc13)-c1cc3c(c(=O)n1C2)COC(=O)[C@]3(O)CC (stereo partly drawn)
IC50 (SW 1116): 91 nM
IC50 (K562): 1620 nM
IC50 (U-251): 1700 nM
IC50 (SK-OV-3): 1 nM
IC50 [20]: 385 nM

Structure (SMILES): CC[C@@]1(O)C(=O)OCc2c1cc1n(c2=O)Cc2c-1nc1ccccc1c2CSSCc1c2c(nc3ccccc13)-c1cc3c(c(=O)n1C2)COC(=O)[C@]3(O)CC
IC50 (NCI-H460): 6 nM
IC50 (HeLa): 9 nM
IC50 (MSTO-211H; Homo sapiens, MSTO-211H, 72 h): 2.2 nM
IC50 (MSTO-211H; msto-211h): 2 nM
IC50 (A-431): 21 nM

Structure (SMILES): CC[C@@]1(OC(=O)CCC(=O)O[C@@H]2O[C@@H](C)[C@H](OC(C)=O)[C@@H](OC(C)=O)[C@H]2OC(C)=O)C(=O)OCc2c1cc1n(c2=O)Cc2cc3cc4c(cc3nc2-1)OCO4
IC50 (A549 [10]): 83 nM

Structure (SMILES): CC[C@@]1(O)C(=O)OCc2c1cc1n(c2=O)Cc2cc3ccccc3nc2-1 [CAMPTOTHECIN]
IC50 (Jurkat): 100 nM
